{"source": "paper PMC11677424", "about": "“Early-Stage IM Treatment with the Host-Derived Immunostimulant CPDI-02 Increases Curative Protection of Healthy Outbred Mice Against Subcutaneous Infection with Community-Acquired Methicillin-Resistant Staphylococcus aureus USA300” (Pharmaceutics, 2024)", "key": {"CA-MRSA USA300 LAC": {"tested_on": "CA-MRSA USA300 LAC", "test": "CA-MRSA burden of subcutaneous abscesses after single IM treatment", "assay_type": "in vivo, Staphylococcus aureus", "details": "female CD-1 mice, single IM 50 mg/kg at 6 h post-challenge, Day 1 post-challenge", "procedure": "At 24 h post-challenge (Section 2.4: single IM treatment), mice were euthanized (n = 5 per cohort) and rear flanks were disinfected with 70% EtOH. Abscess and skin biopsies (Tru-Punch Sterile Disposable Biopsy Punch Razors, 8 mm^2, Sklar instruments 961130) were suspended in TSB [2 mL] and homogenized in C tubes (Miltenyi Biotec 130-093-237, Bergisch Gladbach, DE) using a gentleMACS Dissociator (Miltenyi Biotec 130-093-235, program B). Homogenized abscess tissues were serially diluted in PBS and plated on TSA plates and incubated at 37 °C for 24 h, and bacterial colonies were counted. Bacterial colony counts per abscess were normalized to starting tissue weights and compared using a Mann–Whitney test (nonparametric t-test). Sections of paraffin-embedded tissues collected above were also Gram-stained and analyzed on a Nikon Eclipse E600 (Minato City, Japan) at 200× magnification and imaged using a Lumenera Infinity 2 Microscope Camera (Ottawa, ON, Canada)."}, "[1]": {"test": "Preliminary PK and distribution after IM or IV administration (LC-MS/MS)", "assay_type": "in vivo, female outbred CD-1 mice", "procedure": "Female outbred CD-1 mice (4-6 weeks old) were infected SQ with CA-MRSA, as described (Section 2.4). At 6 h post-infection, vehicle alone (PBS) or vehicle containing 12.5 mg CPDI-02/kg (IV) or 50 mg/kg (IM) and blood samples (50 µL) were collected from the submandibular vein (Medipoint Goldenrod Lancet, 5 mm) at 2, 4, 8, and 24 h post-treatment into EDTA-coated tubes containing 200 µL of acidified methanol (0.1% formic acid v/v), and immediately mixed by repeated inversion. Samples were pelleted (16,000 RCF) for 10 min, and supernatants were stored at −80 °C until analysis. At 24 h post-challenge, mice were euthanized, and rear flanks were disinfected with 70% ethanol. Abscesses (Section 2.5) and organs were excised, rinsed with deionized H2O, dried, and 50 mg sections were collected in 200 µL of acidified methanol, homogenized using a gentleMACS Dissociator (Miltenyi Biotec 130-093-235, Tokyo, Japan), and stored at −80 °C until analysis.\nPeptide quantitation was performed using a Waters ACQUITY UPLC system coupled to a Xevo TQ-XS Tandem Quadrupole Mass Spectrometer with electrospray ionization. […] The following MRM m/z values were monitored: 621.4 > 84 and 621.4 > 100 for the analyte and IS, respectively. Peptide concentrations were determined using analyte-to-IS peak area ratios. […]"}, "[2]": {"tested_on": "healthy male and female outbred CD-1 mice", "test": "Repeat IM dosing in healthy CD-1 mice", "assay_type": "in vivo", "procedure": "Sixty CD-1 mice (thirty male and thirty female) approximately six weeks old were randomized into six cohorts (three cohorts for each gender) and then intramuscularly administered either vehicle alone (filter-sterilized 0.2 μm endotoxin-free PBS), vehicle containing CPDI-02 at 50% the observed MTD [65 mg/kg], or CPDI-02 suspended in PBS at 100% the observed MTD [130 mg/kg] twice a week over 32 days (nine doses total). Mice were weighed prior to each dose administration. On the day of administration, mice were assigned a Pain and Distress Assessment Score (Table S1). Four days after the last treatment, through terminal cardiac bleed, whole blood was collected for complete blood count (CBC) with differential (Abaxis VetScan® HM5 Hematology Analyzer, Union City, CA, USA) and blood chemistry (Abaxis VetScan® VS-2 Blood Chemistry Analyzer). In addition, injection site muscle tissues were collected, fixed in 10% formalin for 48 h, and then embedded in paraffin. Paraffin samples were cut into sections and underwent an H&E stain, then analyzed for signs of inflammation and other tissue abnormalities utilizing a Nikon Eclipse E600 (Nikon Corporation, Tokyo, Japan) at 200× magnification, and imaged using a Lumenera Infinity 2 Microscope Camera."}}, "data": [{"smiles": "CSCC[C@H](NC(=O)[C@H](CC(=O)O)NC(=O)[C@H](CCCCN)NC(=O)[C@H](Cc1ccccc1)NC(=O)[C@H](CO)NC(=O)[C@@H](N)Cc1ccc(O)cc1)C(=O)N1CCC[C@H]1C(=O)N(C)[C@@H](CC(C)C)C(=O)N[C@H](C)C(=O)N[C@@H](CCCNC(=N)N)C(=O)O", "note": "[CPDI-02]", "values": [{"measurement": "detectable CA-MRSA in subcutaneous abscesses (Gram staining) vs vehicle", "setting": "CA-MRSA USA300 LAC; histochemistry", "value": "qualitatively decreased"}, {"measurement": "CA-MRSA CFU/g of abscess tissue", "setting": "CA-MRSA USA300 LAC; mean ± SD, vehicle 3 × 10^6 ± 2 × 10^6, SD", "value": "1.8 × 10^6 ± 0.8 × 10^6 CFU/g of abscess tissue"}, {"measurement": "relative distribution to heart, lungs, liver, kidneys, spleen or brain, IM vs IV", "setting": "[1]; IM 50 mg/kg vs IV 12.5 mg/kg, 18 h post-treatment, n = 3 to 5", "value": "no effect"}, {"measurement": "plasma concentrations after IM vs IV administration", "setting": "[1]; abscess-bearing female CD-1 mice, IM 50 mg/kg vs IV 12.5 mg/kg at 6 h post-challenge, 2, 4, 8, 24 h post-treatment, n = 5", "value": "increased"}, {"measurement": "inflammation around the injection site vs vehicle alone", "setting": "[2]; IM 65 and 130 mg/kg, dose-dependent, greater proportion of female than male mice, H&E", "value": "increased signs of mild to severe inflammation"}, {"measurement": "mortality vs vehicle alone", "setting": "[2]; female mice, repeat IM 130 mg/kg, after the eighth and ninth IM injection, p = 0.0022", "value": "increased mortality"}, {"measurement": "signs of distress up to 2 h after injection", "setting": "[2]; male and female CD-1 mice, IM 65 or 130 mg/kg, 9 injections, any treatment group", "value": "No signs of distress"}, {"measurement": "weight gain", "setting": "[2]; male or female CD-1 mice, IM 65 or 130 mg/kg twice per week over 32 days, 9 injections, n = 10", "value": "no effect"}, {"measurement": "effect on CBC (including platelets, platecrit) or blood chemistry vs vehicle alone", "setting": "[2]; male or female mice, IM 65 or 130 mg/kg, up to 4 days after final injection (Day 32), n = 5", "value": "did not"}, {"measurement": "inflammation in thymus, heart, lungs, brain, liver, spleen, kidneys, femur bone marrow, popliteal lymph nodes, Peyer's patches", "setting": "[2]; repeat IM 65 or 130 mg/kg, H&E", "value": "no signs of inflammation"}]}]}
